PubChem BioAssay AID1033 (Sanford-Burnham Center for Chemical Genomics, 2008)
Calls of active or inactive are those of the source. The rule behind the calls is not given here.

biological target: Chaperone protein DnaK (Escherichia coli (strain K12)) (UniProt P0A6Y8); assay: binders of DnaK substrate-binding domain, biophysical, NMR, chaperone (AID 1033); conditions: Purified DnaK SBD, NMR ligand binding
Sequence (P0A6Y8 whole entry, looked up, the tested form may be a part): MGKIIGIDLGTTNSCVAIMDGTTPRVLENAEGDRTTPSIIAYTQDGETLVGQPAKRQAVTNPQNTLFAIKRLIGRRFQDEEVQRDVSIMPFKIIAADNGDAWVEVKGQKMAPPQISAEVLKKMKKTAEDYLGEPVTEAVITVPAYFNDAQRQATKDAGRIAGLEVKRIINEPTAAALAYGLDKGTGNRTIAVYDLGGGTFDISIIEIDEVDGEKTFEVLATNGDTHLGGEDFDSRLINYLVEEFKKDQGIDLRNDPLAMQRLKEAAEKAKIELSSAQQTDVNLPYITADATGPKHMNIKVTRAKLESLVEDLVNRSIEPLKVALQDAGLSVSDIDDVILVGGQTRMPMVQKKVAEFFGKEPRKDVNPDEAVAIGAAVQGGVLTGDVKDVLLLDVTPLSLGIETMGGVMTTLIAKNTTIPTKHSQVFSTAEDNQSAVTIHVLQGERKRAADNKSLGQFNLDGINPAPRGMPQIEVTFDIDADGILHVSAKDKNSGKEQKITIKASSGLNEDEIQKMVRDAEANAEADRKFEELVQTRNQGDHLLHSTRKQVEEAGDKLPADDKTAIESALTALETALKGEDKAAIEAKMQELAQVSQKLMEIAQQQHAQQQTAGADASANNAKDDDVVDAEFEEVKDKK

Row | Structure (SMILES) | Kd
1 | c1ccc(-c2noc(-c3cccnc3)n2)nc1 | > 4 mM (inactive)
2 | COc1ccc(-c2coc3cc(O)ccc3c2=O)c(O)c1O | > 4 mM (inactive)
3 | O=C1NC(=O)C(C2SC(=O)NC2=O)S1 (centres undefined) | > 4 mM (inactive)
4 | CSc1nc(-c2ccccc2)ccc1C(N)=O | > 4 mM (inactive)
5 | NC(=O)CSCc1ccc(Br)cc1 | > 4 mM (inactive)
6 | Nc1ccc2c(c1)N1CCN=C1S2 | > 4 mM (inactive)
7 | O=C(O)CC1C(=O)NCCN1Cc1cccs1 (centres undefined) | > 4 mM (inactive)
8 | CN1C(=O)CC[C@H]1c1cccnc1 | > 4 mM (inactive)
9 | CCOC(=O)C1CN(C)CCN1C (centres undefined) | > 4 mM (inactive)
10 | O=C(COc1ccccc1Cl)N1CCCC1 | > 4 mM (inactive)
11 | CC(=O)Nc1ccc(S(=O)(=O)NC(N)=O)cc1 | > 4 mM (inactive)
12 | O=C1CS/C(=N/S(=O)(=O)c2ccccc2)N1 | > 4 mM (inactive)
13 | COc1ccccc1/C=C/CN1CCOCC1 | > 4 mM (inactive)
14 | CN1CCC(N(C)C2CCN(C)CC2)CC1 | > 4 mM (inactive)
15 | NC(=O)C1CCN(c2ccc(Cl)nn2)CC1 | > 4 mM (inactive)
16 | CC(=O)N1N=C(N)SC1c1cccnc1 (centres undefined) | > 4 mM (inactive)
17 | COc1ccccc1NC(=O)c1ccc(Br)o1 | > 4 mM (inactive)
18 | O=C(Nc1c[nH]c(=O)[nH]c1=O)c1ccccc1F | > 4 mM (inactive)
19 | O=C(O)c1csc2ccccc12 | > 4 mM (inactive)
20 | O=C(O)c1ccc2c(c1)OCCO2 | > 4 mM (inactive)
21 | Cc1nn(C)c(Cl)c1S(=O)(=O)N1CCOCC1 | > 4 mM (inactive)
22 | CC1O[C@@H](Oc2c(-c3ccc(O)c(O)c3)oc3cc(O)cc(O)c3c2=O)[C@H](O)[C@H](O)[C@H]1O (some centres undefined) | > 4 mM (inactive)
23 | COC(=O)[C@@]1(C)CCC[C@]2(C)c3ccc(O)c(C(C)C)c3CCC12 (some centres undefined) | > 4 mM (inactive)
24 | O=C(c1cc(Cl)cc(Cl)c1)N1CCOCC1 | > 4 mM (inactive)
25 | O=c1[nH]oc2ccccc12 | > 4 mM (inactive)

Row | Structure (SMILES) | Kd
26 | CSc1ccccc1NC(=O)c1ccc(C)o1 | > 4 mM (inactive)
27 | O=C(c1cccc(-n2cnnn2)c1)N1CCOCC1 | > 4 mM (inactive)
28 | CN1C(=O)c2ccc(C(=O)NCc3ccccc3)cc2C1=O | > 4 mM (inactive)
29 | NC(=O)CSc1ncnc2ccccc12 | > 4 mM (inactive)
30 | Cc1cc(C)n2nc(N)nc2n1 | > 4 mM (inactive)
31 | O=c1[nH]c2ccc(S(=O)(=O)NC3CC3)cc2[nH]1 | > 4 mM (inactive)
32 | NC(=O)CS(=O)(=O)c1ccc(Cl)cc1 | > 4 mM (inactive)
33 | O=c1ccn(Cc2ccccc2)c(=O)n1Cc1ccccc1 | > 4 mM (inactive)
34 | O=C(O)CCC(=O)c1c[nH]c2ccccc12 | > 4 mM (inactive)
35 | O=C1CSC(=Nc2cccc(C(F)(F)F)c2)N1 | > 4 mM (inactive)
36 | COc1ccc2c(c1)OCc1c-2oc2cc(OC)ccc12 | > 4 mM (inactive)
37 | Cc1nc(NC(=O)c2cccnc2)ccc1Br | > 4 mM (inactive)
38 | NC(=O)c1cc(Cl)c(C(N)=O)cc1Cl | > 4 mM (inactive)
39 | Cc1nc2ccccc2c(=O)n1/N=C/c1ccncc1 | > 4 mM (inactive)
40 | COC(=O)c1ccccc1C | > 4 mM (inactive)
41 | NC(=O)C1CCCN1S(=O)(=O)c1ccc(F)cc1 (centres undefined) | > 4 mM (inactive)
42 | O=C(Nc1ccccc1F)c1ccncc1 | > 4 mM (inactive)
43 | COc1cc2nc(-c3cccs3)oc(=O)c2cc1OC | > 4 mM (inactive)
44 | Cc1cccc(N2CCN(C(=O)c3ccncc3)CC2)c1C | > 4 mM (inactive)
45 | O=C(O)Cn1cc(C(F)(F)F)ccc1=O | > 4 mM (inactive)
46 | O=C(c1cnsn1)N1CCN(c2ccccc2)CC1 | > 4 mM (inactive)
47 | c1csc(-c2nnc3ccccn23)c1 | > 4 mM (inactive)
48 | O=C1CCCc2c1nc(-c1ccccc1)n2O | > 4 mM (inactive)
49 | CSc1nn(-c2ccccc2)c(N)c1C#N | > 4 mM (inactive)
50 | NC(=O)c1ccsc1N | > 4 mM (inactive)

Row | Structure (SMILES) | Kd
51 | NC(=O)c1ccc(NC(=O)c2cccnc2)cc1 | > 4 mM (inactive)
52 | COc1ccc(/C=C2/NC(=S)NC2=O)cc1 | > 4 mM (inactive)
53 | NCc1cccc(-n2cccc2)c1 | > 4 mM (inactive)
54 | Cc1nc(CC(=O)O)c(-c2ccccc2)s1 | > 4 mM (inactive)
55 | O=C(Nc1ccc(O)cc1)N1CCOCC1 | > 4 mM (inactive)
56 | CC(=O)O[C@H]1C[C@@H](OC(C)=O)C(C)(C)C2CC(=O)[C@]3(C)C(CC[C@@]4(C)[C@H](c5ccoc5)OC(=O)[C@H]5O[C@]543)[C@]21C (some centres undefined) | > 4 mM (inactive)
57 | Nc1ccc(F)cc1F | > 4 mM (inactive)
58 | C/C=C/C(=O)Nc1ccc(NC(C)=O)cc1 | > 4 mM (inactive)
59 | CCOC(=O)c1cnc2n(c1=O)CCS2 | > 4 mM (inactive)
60 | Cc1nnc(N2CCN(Cc3ccccc3)CC2)[nH]c1=O | > 4 mM (inactive)
61 | COC(=O)CSc1n[nH]c(N)n1 | > 4 mM (inactive)
62 | O=C1C2CC=CCC2C(=O)N1c1ccccc1O (centres undefined) | > 4 mM (inactive)
63 | CC(=O)Nc1ccc2c(c1)CCCC2=O | > 4 mM (inactive)
64 | COc1ccc2c(=O)c(OC)c(-c3ccccc3)oc2c1 | > 4 mM (inactive)
65 | S=C(Nc1ccc2nccnc2c1)N1CCOCC1 | > 4 mM (inactive)
66 | COc1ccc(O)c(-c2cn[nH]c2-c2cccs2)c1 | > 4 mM (inactive)
67 | O=C(O)Cc1noc2ccccc12 | > 4 mM (inactive)
68 | CCCNC(CC(=O)Nc1cccnc1)C(=O)O (centres undefined) | > 4 mM (inactive)
69 | CC(=O)Nc1c(C#N)c(C(C)(C)C)cn1C | > 4 mM (inactive)
70 | O=C(NN1CCOCC1)c1ccccc1F | > 4 mM (inactive)
71 | Cc1noc(C)c1C(=O)N1CCc2ccccc21 | > 4 mM (inactive)
72 | Cc1cc(SCCF)n2ncnc2n1 | > 4 mM (inactive)
73 | Nc1c(N2CCCC2)cnn(-c2ccccc2)c1=O | > 4 mM (inactive)
74 | CC(=O)Nc1cccc(-c2nnc3n2CC(C)S3)c1 (centres undefined) | > 4 mM (inactive)
75 | O=C(O)/C=C(\CC(=O)O)C(=O)O | > 4 mM (inactive)

Row | Structure (SMILES) | Kd
76 | S=c1nc[nH]c2c1cnn2-c1ccccc1 | > 4 mM (inactive)
77 | CC1(C)CC2C1CCC1(C)OC1CCC2(C)O (centres undefined) | > 4 mM (inactive)
78 | NC(N)=NOCC[C@H](N)C(=O)O | > 4 mM (inactive)
79 | COc1cc(O)c(C(=O)c2ccccc2)cc1O | > 4 mM (inactive)
80 | CC(C)=CC1C(CO)C1(C)C (centres undefined) | > 4 mM (inactive)
81 | O=C1C2CCCCC2C(=O)N1c1ccc(O)cc1 (centres undefined) | > 4 mM (inactive)
82 | O=C(CSc1cccc2cccnc12)N1CCCC1 | > 4 mM (inactive)
83 | O=c1ccc(=O)n(CN2CCc3ccccc3C2)[nH]1 | > 4 mM (inactive)
84 | Cc1nn(C)c(C)c1C(=O)O | > 4 mM (inactive)
85 | CC(N)C(=O)c1ccco1 (centres undefined) | > 4 mM (inactive)
86 | Cc1occc1C(=O)Nc1ccc2c(c1)OCO2 | > 4 mM (inactive)
87 | Cc1nnc(N2CCc3ccccc3C2)[nH]c1=O | > 4 mM (inactive)
88 | Cc1ccc(Nc2nc(N)nc(CC#N)n2)cc1 | > 4 mM (inactive)
89 | O=C(Nn1cnnc1)c1ccccc1-c1ccccc1 | > 4 mM (inactive)
90 | O=C(OCc1c(Cl)cccc1Cl)c1cnccn1 | > 4 mM (inactive)
91 | COc1ccc(C2=CC(=O)C=CC2=O)cc1 | > 4 mM (inactive)
92 | O=C1N=C(N2CCOCC2)S/C1=C\c1cccnc1 | > 4 mM (inactive)
93 | CCCCCCCCCCCCCCC(C(=O)O)C(O)(CC(=O)OC)C(=O)O (centres undefined) | > 4 mM (inactive)
94 | Cc1cc(C(=O)Nc2sc(C)c(C)c2C#N)c(C)o1 | > 4 mM (inactive)
95 | Nc1ccc2nsnc2c1 | > 4 mM (inactive)
96 | CC1=C2[C@H]3OC(=O)[C@@H](C)[C@@H]3CC[C@@]2(C)C=CC1=O | > 4 mM (inactive)
97 | Cc1noc(C)c1C(=O)NCc1cccs1 | > 4 mM (inactive)
98 | C=C1CCC(=O)C(C)CCC2C1CC2(C)C (centres undefined) | > 4 mM (inactive)
99 | Nc1ccccc1C(=O)N1CCOCC1 | > 4 mM (inactive)
100 | CC1(C)Cc2nc3n[nH]c(N)c3cc2CO1 | > 4 mM (inactive)

Row | Structure (SMILES) | Kd
101 | COc1c(O)cc2c(-c3ccccc3)cc(=O)oc2c1OC | > 4 mM (inactive)
102 | NC(CC(=O)O)c1ccccc1 (centres undefined) | > 4 mM (inactive)
103 | CCOc1ccc(-c2c(=O)n(O)c3ccccc3[n+]2[O-])cc1 | > 4 mM (inactive)
104 | NC(=O)N1CCc2ccccc21 | > 4 mM (inactive)
105 | CC(=O)O[C@H]1C[C@@H](OC(C)=O)C(C)(C)C2C[C@@H](OC(C)=O)[C@]3(C)C(CC[C@@]4(C)[C@H](c5ccoc5)OC(=O)[C@H]5O[C@]543)[C@]21C (some centres undefined) | > 4 mM (inactive)
106 | O=C(CNC(=O)c1ccc(F)cc1)NC1=NCCS1 | > 4 mM (inactive)
107 | COC(=O)c1cccs1 | > 4 mM (inactive)
108 | Cc1ccc(NC(=O)C2CCN(S(C)(=O)=O)CC2)cc1 | > 4 mM (inactive)
109 | CC(C)(C)NC(=O)N1CCC(C(N)=O)CC1 | > 4 mM (inactive)
110 | NC(=O)C1CCN(C(=O)CN2CCc3ccccc32)CC1 | > 4 mM (inactive)
111 | O=C(NCc1ccccn1)c1ccc(Cl)cc1Cl | > 4 mM (inactive)
112 | O=C(O)c1csc(-c2cccnc2)n1 | > 4 mM (inactive)
113 | O=C(Nc1cccc(O)c1)c1ccccc1 | > 4 mM (inactive)
114 | c1ccc(-n2nnnc2Oc2cccc3cccnc23)cc1 | > 4 mM (inactive)
115 | c1ccc(Cc2nnc3sc(-c4cccnc4)nn23)cc1 | > 4 mM (inactive)
116 | CN(C)N1C(=O)C2CCCCC2C1=O (centres undefined) | > 4 mM (inactive)
117 | Cc1cc(=O)cc(C)n1NC(N)=S | > 4 mM (inactive)
118 | S=C(NCc1ccco1)NN1CCOCC1 | > 4 mM (inactive)
119 | CC1(C)C=Cc2c(cc3occ(-c4ccc5c(c4)OCO5)c(=O)c3c2O)O1 | > 4 mM (inactive)
120 | Cc1ccc(C(=O)Nc2ccncc2)o1 | > 4 mM (inactive)
121 | CCOC(=O)Cn1cnc2c1c(=O)[nH]c(=O)n2C | > 4 mM (inactive)
122 | Cn1c(C(=O)O)ccc1S(N)(=O)=O | > 4 mM (inactive)
123 | COC(=O)NCc1cc2cc(Cl)ccc2[nH]1 | > 4 mM (inactive)
124 | O=C(NC1CCS(=O)(=O)C1)c1cccs1 (centres undefined) | > 4 mM (inactive)
